Results taken from patent EP0117302A2, “Phenothiazine derivatives” (THE WELLCOME FOUNDATION LIMITED, priority 1982, dated 1984).
Where two headings read alike, the source gives them in different places.

Columns and labels:
histamine [1] = test: In vitro antihistamine activity: histamine concentration-response curves on isolated ileum longitudinal muscle, Schild plot; type: cell-based, guinea-pigs; conditions: guinea-pig ileum longitudinal muscle, one hour incubation with test compound, antagonism of histamine; for pA2: 60 min; for Kb: Cavia porcellus, 1 h, read-out: pA2 (converted)
Protocol: A. In vitro antihistamine activity: The longitudinal muscle was isolated from the intact ileum of guinea-pigs (Hartley, male 250-400g) and placed in an organ bath under 300 mg tension. […] Following washing, the tissues were incubated for one hour with the test compound and then a second histamine concentration-response curve was run. […] Regression of Log (dr-1) on Log [B], where dr is an equiactive response in the presence and absence of antagonist and [B] is the molar concentration of antagonist, allowed an estimate of pA2, i.e. the negative log of the concentration of antagonist which shifts the control histamine concentration response curve 2X to the right.

compound 48/80 = test: Inhibition of compound 48/80 induced anaphylactoid reaction; type: in vivo, Wister rats; conditions: Rattus norvegicus, rats, compound administered 2 hrs. prior to test, read-out: ED50 (dose providing 50% protection against death induced by compound 48/80)
Protocol: Non-fasted, Wister rats (180-300g).were dosed with the test compound, (i.p. or p.o.) 2 hours before compound 48/80 challenge. One hour prior to challenge, 5 mg/kg i.p. of propranolol was administered. The anaphylactoid inducing agent, compound 48/80, was given intravenously at 2 mg/kg and the animals were monitored for symptoms of respiratory distress.
Data were analyzed by Probit determinations. the response was quantitated by determining the dose of test compound which protected 50% of the animals from death at a given time point.
Agents which block the effects of compound 48/80 are commonly classified as inhibitors of anaphylactic mediators or inhibitors of the release of anaphylic mediators.

histamine [2] = test: In vivo antihistaminic activity: protection against histamine aerosol challenge; conditions: Cavia porcellus, po, guinea pigs
Protocol: B. In vivo Antihistaminic Activity: Guinea pigs (Hartley, male, 300-350 g) were fasted for 20 hours and then dosed p.o. or i.p. with the test compound. One hour after dosing, on an individual basis, the guinea pigs were placed in a clear plastic chamber which was saturated and continually gassed with 0.25% histamine from an aerosol nebulizer. The guinea pigs were monitored for signs of histamine anaphylaxis (e.g. cough, sneeze, strong abdominal movements, cyanoses or loss of righting). […] ED50's for protection against histamine were calculated by probit analysis. […] Complete protection was defined as no histamine symptoms for six minutes in the aerosol chamber (approximately 10X the collapse time of the control animals).

[3] = Pharmacokinetic studies: relative distribution in brain and plasma; type: in vivo; conditions: rodents, compared with promethazine
[4] = Acute toxicity (approximate LD50); conditions: rat, in vivo, rats

| Molecule | ED50 (compound 48/80; ip) | Kb (histamine [1]) | further results |
| --- | --- | --- | --- |
| 4 (or 1)-(2-carboxyethyl)-10-(2-dimethylaminopropyl)-phenothiazine [Compound I] |  |  | pA2 (histamine [1]): 7.2 |
| 10-(2-dimethylaminopropyl)phenothiazine-4(or 1)-carboxylic acid [Compound G] |  |  | pA2 (histamine [1]): 6.8 |
| COc1ccc(CCN2CCC(Nc3nc4ccccc4n3Cc3ccc(F)cc3)CC2)cc1 [Astemizole, reference compound] | 1.08 mg/kg |  |  |
| CC(CN1c2ccccc2Sc2ccc(/C=C/C(=O)O)cc21)N(C)C (stereo not drawn) [Compound A, trans-β-[10-(2-Dimethylaminopropyl)phenothiazin-2-yl]acryiic acid] | 2.64 mg/kg | 6.31 nM | ED50 (histamine [2]; 0.25% histamine aerosol, 1 hour post-dosing, read-out: ED50): 1.7 mg/kg; ED50 (histamine [2]; 24 hours protection, read-out: ED50 for 24 hours protection): 11 mg/kg; brain penetration [3]: do not readily penetrate the brains of rodents |
| CC(CN1c2ccccc2Sc2ccc(CC(=O)O)cc21)N(C)C (centres unmarked) [Compound B, 2-[10-(2-Dimethylaminopropyl)phenothiazin-2-yl]acetic acid] | 0.89 mg/kg | 0.398 nM | ED50 (histamine [2]; 0.25% histamine aerosol, 4 hours post dosing, read-out: ED50): 0.3 mg/kg; ED50 (compound 48/80; po): 1.2 mg/kg; brain penetration [3]: do not readily penetrate the brains of rodents; LD50 ([4]; ip): ~210 mg/kg; LD50 ([4]; po): > 500 mg/kg |
| CC(C(=O)O)c1ccc2c(c1)N(CC(C)N(C)C)c1ccccc1S2 (centres unmarked) [Compound C, 2-[10-(2-Dimethylaminopropyi)phenothiazin-2-yl]propionic acid] | 1.43 mg/kg | 7.94 nM |  |
| CC(CN1c2ccccc2Sc2cc(C(=O)O)ccc21)N(C)C (centres unmarked) [Compound D, 10-(2-dimethylaminopropyI)phenothiazine-3-carboxylic acid] |  | 631 nM |  |
| CC(CN1c2ccccc2Sc2cc(/C=C/C(=O)O)ccc21)N(C)C (centres unmarked) [Compound E, E-3-(2-carboxyvinyl)-10-(2-dimethylaminopropyl)-phenothiazine] | 3.11 mg/kg | 631 nM |  |
| CC(CN1c2ccccc2Sc2cc(CCC(=O)O)ccc21)N(C)C (centres unmarked) [Compound F, 3-(2-carboxyethyl)-10-(2-dimethylaminopropyl)phenothiazine] |  | 6310 nM |  |
| CCOC(=O)Cc1ccc2c(c1)N(CC(C)N(C)C)c1ccc(Cl)cc1S2 (centres unmarked) [Compound J] |  | 1 nM |  |
| CC(CN1c2ccc(Cl)cc2Sc2ccc(CC(=O)O)cc21)N(C)C (centres unmarked) [Compound K, [7-Chloro-10-(2-dimethylaminopropyl)-2-phenothiazinyl]acetic acid] |  | 1.58 nM |  |
| CCOC(=O)Cc1ccc2c(c1)N(CCN(C)C)c1ccc(C)cc1S2 [Compound L, Ethyl [10-(2-dimethylaminoethyl)-7-methyl-2-phenothiazinyl]acetate] |  | 0.794 nM |  |
| Cc1ccc2c(c1)Sc1ccc(CC(=O)O)cc1N2CCN(C)C [Compound M, [10-(2-Dimethylaminoethyl)-7-methyl-2-phenothiazinyl]acetic acid] |  | 1.26 nM |  |
| CCOC(=O)C(C)(C)c1ccc2c(c1)N(CC(C)N(C)C)c1ccccc1S2 (centres unmarked) [Compound O, Ethyl 2-[10-(2-dimethylaminopropyl)-2-phenothiazinyl]-2-methylpropionate] |  | 3.16 nM |  |
| CC(CN1c2ccccc2Sc2ccc(C(C)(C)C(=O)O)cc21)N(C)C (centres unmarked) [Compound P] |  | 1.58 nM |  |
| CN(C)CCCN1c2ccccc2Sc2ccc(C(C)(C)C(=O)O)cc21 [Compound Q, 2-[10(3-dimethylaminopropyl)-2-phenothiazinyl]-2-methylpropionic acid] |  | 2 nM |  |
| CC(CN1c2ccccc2Sc2ccc(C(=O)O)cc21)N(C)C (centres unmarked) [Compound S, 10-(2-Dimethylaminopropyl)phenothiazin-2-yl-carboxylic acid] |  | 1 nM |  |
| CN1CCC(=C2c3ccccc3CC(=O)c3sccc32)CC1 [Ketotifen, reference compound] | 0.87 mg/kg |  |  |
| E-4 (or 1)-(2-carboxyvinyl)-10-(2-dimethylaminopropyl)phenothiazine [Compound H] |  |  | pA2 (histamine [1]): 7.8 |
| [10-(2-diethylaminoethyl)-7-fluoro-2-phenothiaznyl]acetic acid [Compound N] |  |  | pA2 (histamine [1]): 8.6 |
